Results taken from patent US8592415B2, “Selective kinase inhibitors” (Reaction Biology Corp., priority 2009, dated 2013).

What was measured:
JAK1 = JAK1 (Homo sapiens, UniProt P23458); assay: In vitro JAK kinase enzymatic assay (JAK1); assay type: biochemical
Method: (§1) The JAK3 kinase is recombinant human protein (catalytic domain, amino acids 781-1124 with GST-tag), expressed in insect cells (Invitrogen Catalog PV3855). The substrate is poly-glutamic acid-tyrosin peptide, Poly-(GT) (4:1) (Sigma-Aldrich, catalog P7244). [γ-^33P]-ATP is purchased from Perkin Elmer (catalog NEG602H001MC) (EasyTides). Kinase reaction buffer is 100 mM HEPES (pH 7.5), 20 mM MgCl2, 2 mM EGTA, 0.02% Brij 35. The JAK1 (Invitrogen Catalog PV4774), JAK2 (Invitrogen Catalog PV4210) and TYK2 Invitrogen Catalog PV4790) enzymatic assays are performed in the similar way. JAK1 and JAK2 substrate is Poly-(GT) (4:1), but TYK2 substrate is peptide with sequences of […]. The reaction is carried for 2 hours at room temperature. After the reactions are finished or stopped, portion or all the reaction mixtures are transferred onto filter paper P81 Phosphocellulose paper (Whatman catalog 3698-915) for binding the final radioisotope labeled products. The unreacted phosphate are washed away without interfering with the detection of real phosphorylated products. The final product can be detected by instruments such as scintillation counter, top counter or phosphoimager. The enzymatic assays can also performed in assays described those described in the art [e.g., Ma H et al, Expert Opin. Drug Discov. 3, 607-621 (2008); Olive D M, Expert Rev Proteomics, 1, 327-341 (2004)].
(§2) Signal=Bottom+(Top−Bottom)/(1+10^((Log(IC50)−Log [I])*Hill Slope) Bottom and Top refer to the post and pre-transition baselines, respectively.

TYK2 = TYK2 (Homo sapiens (Human), UniProt P29597); assay: In vitro JAK kinase enzymatic assay (TYK2); assay type: biochemical
Method: as §1, §2

JAK2 [1] = assay: In vitro JAK kinase enzymatic assay (JAK2); assay type: biochemical
Method: as §1, with “The” for “The JAK3 kinase is recombinant human protein (catalytic domain, amino acids 781-1124 with GST-tag), expressed in insect cells (Invitrogen Catalog PV3855). The”, “After the reactions are finished or stopped, portion or all the reaction mixtures are transferred onto filter paper P81 Phosphocellulose paper (Whatman catalog 3698-915) for binding the final radioisotope labeled products.” left out, “Discov.” for “Discov. 3, 607-621 (2008); Olive D M, Expert Rev Proteomics, 1, 327-341 (2004)].”
as §2

JAK2 [2] = molecular target: JAK2 (Homo sapiens, UniProt O60674); assay: In vitro JAK kinase enzymatic assay (JAK2); assay type: biochemical
Method: as §1, with “The” for “The JAK3 kinase is recombinant human protein (catalytic domain, amino acids 781-1124 with GST-tag), expressed in insect cells (Invitrogen Catalog PV3855). The”, “After the reactions are finished or stopped, portion or all the reaction mixtures are transferred onto filter paper P81 Phosphocellulose paper (Whatman catalog 3698-915) for binding the final radioisotope labeled products.” left out, “Discov.” for “Discov. 3, 607-621 (2008); Olive D M, Expert Rev Proteomics, 1, 327-341 (2004)].”
as §2

JAK3 [3] = molecular target: T1, JAK3 (Homo sapiens (Human), UniProt P52333); assay: In vitro JAK kinase enzymatic assay (JAK3); assay type: biochemical
Method: as §1, §2
Target sequence in this assay (P52333 781-1124): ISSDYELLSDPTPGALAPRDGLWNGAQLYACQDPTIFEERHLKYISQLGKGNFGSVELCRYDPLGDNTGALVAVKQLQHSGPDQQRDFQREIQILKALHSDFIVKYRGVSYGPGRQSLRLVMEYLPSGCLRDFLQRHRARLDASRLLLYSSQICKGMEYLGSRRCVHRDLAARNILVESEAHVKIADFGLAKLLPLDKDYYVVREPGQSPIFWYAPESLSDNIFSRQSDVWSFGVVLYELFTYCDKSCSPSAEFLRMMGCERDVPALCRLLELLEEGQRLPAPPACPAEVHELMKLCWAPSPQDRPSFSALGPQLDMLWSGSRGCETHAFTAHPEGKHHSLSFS

[4] = tested on: autoimmune type I diabetes; conditions: NOD mouse; cited from earlier work
SZ-4 cells = assay: IL-2 dependent cell proliferation assay (MTT); assay type: cell-based; conditions: Homo sapiens, 72 hr, IL-2, MTT, read-out: IC50, inhibition of proliferation
Description: The number of surviving cells is directly proportional to the level of the formazan product created.

[5] = tested on: collagen-induced arthritis; conditions: rat; cited from earlier work
[6] = tested on: adjuvant-induced arthritis; conditions: rat; cited from earlier work
[7] = tested on: amyotrophic lateral sclerosis (ALS); conditions: transgenic mouse model of ALS; cited from earlier work
JAK3 [8] = molecular target: T1, JAK3; conditions: cited from earlier work
Target sequence in this assay (P52333 whole entry): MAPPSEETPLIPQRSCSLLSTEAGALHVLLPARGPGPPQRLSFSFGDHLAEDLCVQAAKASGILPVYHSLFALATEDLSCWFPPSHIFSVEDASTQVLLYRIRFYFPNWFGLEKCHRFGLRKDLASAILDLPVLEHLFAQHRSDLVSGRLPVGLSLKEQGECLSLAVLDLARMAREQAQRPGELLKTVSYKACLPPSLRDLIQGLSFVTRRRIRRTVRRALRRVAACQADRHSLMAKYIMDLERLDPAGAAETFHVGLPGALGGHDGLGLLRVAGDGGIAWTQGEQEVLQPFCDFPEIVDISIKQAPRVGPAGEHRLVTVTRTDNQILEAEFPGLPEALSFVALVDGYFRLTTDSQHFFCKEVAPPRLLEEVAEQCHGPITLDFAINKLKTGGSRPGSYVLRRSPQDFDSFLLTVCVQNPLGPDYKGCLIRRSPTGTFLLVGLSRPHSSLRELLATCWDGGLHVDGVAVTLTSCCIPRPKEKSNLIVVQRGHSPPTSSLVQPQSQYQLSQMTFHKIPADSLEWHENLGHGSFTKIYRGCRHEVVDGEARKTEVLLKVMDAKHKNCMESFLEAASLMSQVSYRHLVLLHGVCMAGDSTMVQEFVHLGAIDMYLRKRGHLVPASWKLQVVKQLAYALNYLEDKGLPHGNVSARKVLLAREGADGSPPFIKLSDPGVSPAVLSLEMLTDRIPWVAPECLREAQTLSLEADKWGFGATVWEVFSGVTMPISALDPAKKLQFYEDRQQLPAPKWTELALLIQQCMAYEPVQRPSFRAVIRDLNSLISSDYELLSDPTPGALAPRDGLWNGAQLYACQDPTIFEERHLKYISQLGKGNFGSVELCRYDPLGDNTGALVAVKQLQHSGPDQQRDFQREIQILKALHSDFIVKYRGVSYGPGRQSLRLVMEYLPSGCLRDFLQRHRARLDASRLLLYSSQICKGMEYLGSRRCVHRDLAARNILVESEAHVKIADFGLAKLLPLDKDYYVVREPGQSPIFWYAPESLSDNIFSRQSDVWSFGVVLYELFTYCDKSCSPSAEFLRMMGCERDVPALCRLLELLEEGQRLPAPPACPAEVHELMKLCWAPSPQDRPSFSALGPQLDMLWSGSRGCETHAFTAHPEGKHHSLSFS

JAK3 phosphorylation = JAK3 phosphorylation detection by immunoprecipitation and Western blot; assay type: cell-based, human; conditions: 0.8 μM compound with IL-2; IL-2 alone more than 12-fold
Method: Cell lines: The SZ-4 cell line is derived from a Sézary patient (Abrams, et al., 1991, J Investig Dermatol. 96, 31-37), and the growth of this cell line is IL-2 dependent. The cells are grown in RPMI 1640 medium supplemented with 10% fetal calf serum, 2 mM L-glutamine, penicillin 100 U/ml, streptomycin 100 ug/ml, and 10 I.U/ml IL-2 in a 5% CO2 humidified incubator at 37° C.
Protein and phosphorylation detection by immunoprecipitation and Western Blot: the above cells is used to evaluate the compounds activities of inhibiting JAK/STAT phosphorylations. After the cells are treated as described above, cells are collected and pelleted by centrifuging, cell pellets are then lysed with PI/RIPA lysis buffer (1% NP40, 1% Deoxycholic Acid, 0.1% SDS, 0.15M NaCl, 10 mM Sodium Phosphate, 1 mM PMSF, 2 mM EDTA, 10 mM NaF, 10 mM Napyrophosphate, 0.4 mM Na3VO4, 10 mM Indoacetamide, PH, 8.0) on ice. The lysed cells are centrifuged at 15,000 rpm to remove cell debris, add 5 ul of Anti-Phosphotyrosine, 4G10® Platinum (Upstate Biotechnology, Lake Placid, N.Y.), and incubate for 90 min on ice. Then, the protein A-Sepharose (Invitrogen, Carlsbad, Calif.) is added to precipitate the immune complexes for 1 hr at 4° C. The immunoprecipitates are washed 3× with lysis buffer, and suspended in loading buffer. […]

[9] = tested on: myeloid dendritic cells (DCs); conditions: cited from earlier work

Chain of TYK2 (P29597 whole entry): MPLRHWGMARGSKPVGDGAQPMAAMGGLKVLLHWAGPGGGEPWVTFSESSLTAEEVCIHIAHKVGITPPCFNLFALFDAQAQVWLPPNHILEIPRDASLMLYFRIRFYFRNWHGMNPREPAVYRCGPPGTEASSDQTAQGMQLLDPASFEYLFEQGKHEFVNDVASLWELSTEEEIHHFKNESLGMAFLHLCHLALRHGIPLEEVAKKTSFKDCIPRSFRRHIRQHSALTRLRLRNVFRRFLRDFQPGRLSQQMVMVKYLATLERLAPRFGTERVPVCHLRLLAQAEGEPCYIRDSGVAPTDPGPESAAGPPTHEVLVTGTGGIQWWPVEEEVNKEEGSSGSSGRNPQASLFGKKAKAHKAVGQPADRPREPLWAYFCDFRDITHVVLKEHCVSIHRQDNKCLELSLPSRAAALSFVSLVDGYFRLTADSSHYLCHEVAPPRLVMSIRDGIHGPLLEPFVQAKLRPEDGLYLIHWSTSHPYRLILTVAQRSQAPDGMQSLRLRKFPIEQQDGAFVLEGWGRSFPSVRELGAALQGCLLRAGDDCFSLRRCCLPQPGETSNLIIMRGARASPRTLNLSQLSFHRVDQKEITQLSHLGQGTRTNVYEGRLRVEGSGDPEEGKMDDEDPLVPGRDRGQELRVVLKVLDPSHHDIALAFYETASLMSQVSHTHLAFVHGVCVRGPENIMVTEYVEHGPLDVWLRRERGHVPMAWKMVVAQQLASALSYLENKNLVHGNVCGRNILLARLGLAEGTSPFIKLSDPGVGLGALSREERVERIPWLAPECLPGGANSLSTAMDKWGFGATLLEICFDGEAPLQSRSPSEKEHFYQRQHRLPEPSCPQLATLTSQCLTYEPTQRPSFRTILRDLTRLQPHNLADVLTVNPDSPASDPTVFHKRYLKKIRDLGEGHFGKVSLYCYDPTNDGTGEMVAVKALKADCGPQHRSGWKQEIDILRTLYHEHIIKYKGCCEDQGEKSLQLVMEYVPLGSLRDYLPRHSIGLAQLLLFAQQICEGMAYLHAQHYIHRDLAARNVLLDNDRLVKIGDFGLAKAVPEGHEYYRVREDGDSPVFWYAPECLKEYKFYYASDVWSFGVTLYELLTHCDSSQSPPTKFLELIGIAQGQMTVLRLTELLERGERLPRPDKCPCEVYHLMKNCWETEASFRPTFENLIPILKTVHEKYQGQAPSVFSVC
Chain of JAK2 (Homo sapiens, UniProt O60674) (O60674 whole entry, looked up, the tested form may be a part): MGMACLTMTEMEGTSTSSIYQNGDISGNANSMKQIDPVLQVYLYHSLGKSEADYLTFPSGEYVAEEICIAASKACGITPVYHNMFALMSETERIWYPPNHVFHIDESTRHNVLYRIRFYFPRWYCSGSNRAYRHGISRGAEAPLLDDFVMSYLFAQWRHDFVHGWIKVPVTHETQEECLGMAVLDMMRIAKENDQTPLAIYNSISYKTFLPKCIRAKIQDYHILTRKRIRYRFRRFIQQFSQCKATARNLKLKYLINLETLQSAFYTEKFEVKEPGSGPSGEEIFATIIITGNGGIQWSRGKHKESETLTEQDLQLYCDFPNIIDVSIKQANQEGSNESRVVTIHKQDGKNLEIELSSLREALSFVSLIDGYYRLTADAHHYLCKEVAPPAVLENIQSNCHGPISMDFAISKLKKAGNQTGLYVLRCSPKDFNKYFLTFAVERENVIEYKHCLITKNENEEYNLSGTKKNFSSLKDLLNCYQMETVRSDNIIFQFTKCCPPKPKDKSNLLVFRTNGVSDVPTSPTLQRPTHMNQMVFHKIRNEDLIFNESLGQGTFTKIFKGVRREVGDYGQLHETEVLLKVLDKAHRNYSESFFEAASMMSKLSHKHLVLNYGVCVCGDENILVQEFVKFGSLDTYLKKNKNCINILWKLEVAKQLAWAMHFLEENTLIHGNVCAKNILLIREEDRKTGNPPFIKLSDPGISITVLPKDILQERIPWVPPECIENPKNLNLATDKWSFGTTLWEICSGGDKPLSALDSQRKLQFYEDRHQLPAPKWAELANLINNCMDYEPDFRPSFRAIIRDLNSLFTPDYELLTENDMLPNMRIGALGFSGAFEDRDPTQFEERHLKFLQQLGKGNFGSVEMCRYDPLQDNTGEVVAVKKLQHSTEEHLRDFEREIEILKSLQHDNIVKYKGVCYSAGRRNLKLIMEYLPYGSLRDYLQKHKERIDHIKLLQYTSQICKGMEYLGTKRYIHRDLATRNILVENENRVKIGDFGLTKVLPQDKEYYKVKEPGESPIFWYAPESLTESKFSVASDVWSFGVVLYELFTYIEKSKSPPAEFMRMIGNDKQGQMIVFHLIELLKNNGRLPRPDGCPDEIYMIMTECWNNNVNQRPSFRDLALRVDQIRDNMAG

Row | Compound | IC50 (JAK1) | IC50 (TYK2) | IC50 (JAK2 [1]) | IC50 (JAK2 [2]) | IC50 (JAK3 [3]) | further results
1 | N#CCC(=O)Nc1cccc(-c2cnc3ccccc3n2)c1 [Example 8, 2-cyano-N-[3-(quinoxalin-2-yl)phenyl]acetamide] | > 20 µM | > 20 µM | 18.1 µM | > 10 µM | 136 nM | –
2 | COc1cc2ncnc(Nc3ccc(O)cc3)c2cc1OC [JANEX-1] | – | – | – | – | – | onset of diabetes [4]: delayed the onset of diabetes
3 | O=C(CN1CCN(c2ccccc2)CC1)Nc1cccc(-c2cnc3ccccc3n2)c1 [Example 16, 2-(4-phenylpiperazin-1-yl)-N-[3-(quinoxalin-2-yl)phenyl]acetamide] | > 20 µM | > 20 µM | 18 µM | > 10 µM | 270 nM | IC50 (SZ-4 cells): 270 nM
4 | C[C@@H]1CCN(C(=O)CC#N)C[C@@H]1N(C)c1ncnc2[nH]ccc12 [CP-690550] | – | – | – | – | – | effect in collagen-induced arthritis [5]: therapeutic effects; effect in adjuvant-induced arthritis [6]: therapeutic effects
5 | COc1cc2ncnc(Nc3ccc(O)cc3)c2cc1OC [WHI-P131] | – | – | – | – | – | survival [7]: increased survival; JAK3 IC50s (JAK3 [8]): low μM ranges
6 | O=C(CCl)Nc1cccc(-c2cnc3ccccc3n2)c1 [Example 1, 2-chloro-N-(3-quinoxalin-2-ylphenyl)acetamide] | > 20 µM | > 20 µM | > 20 µM | > 10 µM | 0.2 nM | IC50 (SZ-4 cells): 0.3 nM; JAK3 phosphorylation level increase above background level (JAK3 phosphorylation): about 2 fold
7 | O=C(CN1CCCCC1)Nc1cccc(-c2cnc3ccccc3n2)c1 [Example 9, 2-(piperidin-1-yl)-N-[3-(quinoxalin-2-yl)phenyl]acetamide] | > 20 µM | > 20 µM | > 20 µM | > 10 µM | 175 nM | –
8 | COc1cc2ncnc(Nc3ccc(O)c(Br)c3)c2cc1OC [WHI-P-154] | – | – | – | – | – | effect on CD40-induced DC maturation [9]: prevented these effects
